# Experimental data published in ChEMBL document CHEMBL1131793, “Discovery of FR166124, a novel water-soluble pyrazolo-[1,5-a]pyridine adenosine A1 receptor antagonist” (Bioorg Med Chem Lett, 1999).
# pIC50: −log10 of the molar value.
# Columns and labels:
# Adenosine receptor A2a = Adenosine receptor A2a (Rattus norvegicus, UniProt P30543); assay: Inhibitory activity against Adenosine A2a receptor using [3H]NECA in rat striatal membranes; type: cell membranes, Striatum, Membrane
# Adenosine receptor A1 = target: T1, Adenosine receptor A1 (Rattus norvegicus, UniProt P25099); assay: Inhibitory activity against Adenosine A1 Receptor using [3H]CHA in rat cortical membranes; type: cell membranes
# T1 sequence (P25099 whole entry): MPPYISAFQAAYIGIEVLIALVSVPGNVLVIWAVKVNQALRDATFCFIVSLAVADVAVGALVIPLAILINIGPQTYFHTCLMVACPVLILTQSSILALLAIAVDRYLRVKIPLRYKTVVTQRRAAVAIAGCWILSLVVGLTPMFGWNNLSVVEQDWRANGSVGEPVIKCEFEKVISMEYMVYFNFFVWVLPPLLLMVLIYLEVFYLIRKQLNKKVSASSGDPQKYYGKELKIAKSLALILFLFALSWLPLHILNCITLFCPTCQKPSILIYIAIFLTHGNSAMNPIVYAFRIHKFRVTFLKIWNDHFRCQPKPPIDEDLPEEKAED
# [1] = Water solubility was measured; type: ADME
# Adenosine receptor A2a, sequence (P30543 whole entry): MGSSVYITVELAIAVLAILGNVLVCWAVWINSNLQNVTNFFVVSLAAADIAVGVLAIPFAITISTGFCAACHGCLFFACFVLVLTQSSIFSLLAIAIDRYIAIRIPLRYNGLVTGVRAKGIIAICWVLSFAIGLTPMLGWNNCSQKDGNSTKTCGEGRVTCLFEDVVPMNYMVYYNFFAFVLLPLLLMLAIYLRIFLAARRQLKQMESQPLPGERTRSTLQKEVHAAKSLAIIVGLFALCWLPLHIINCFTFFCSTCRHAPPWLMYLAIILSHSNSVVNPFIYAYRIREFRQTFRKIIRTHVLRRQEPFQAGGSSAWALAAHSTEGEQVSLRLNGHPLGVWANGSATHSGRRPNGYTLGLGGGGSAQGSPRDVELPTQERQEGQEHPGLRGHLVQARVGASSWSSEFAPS
pIC50 (Adenosine receptor A2a),pIC50 (Adenosine receptor A1),solubility [1] [µg/mL],Structure (SMILES)
7.00,8.44,–,O=C(O)C[C@@H]1CCCC[C@H]1n1nc(-c2c(-c3ccccc3)nn3ccccc23)ccc1=O
5.23,6.92,–,O=C(O)CCCn1nc(-c2c(-c3ccccc3)nn3ccccc23)ccc1=O
5.21,7.82,–,O=C(O)CC1=C(n2nc(-c3c(-c4ccccc4)nn4ccccc34)ccc2=O)CCCC1
–,–,10000,O=C([O-])CCCn1nc(-c2c(-c3ccccc3)nn3ccccc23)ccc1=O.[Na+]

# More lines, now with the values behind:
Structure (SMILES),pIC50 (Adenosine receptor A2a),pIC50 (Adenosine receptor A1),solubility [1] [µg/mL]
O=C(O)C[C@H]1CCCC[C@H]1n1nc(-c2c(-c3ccccc3)nn3ccccc23)ccc1=O,5.26,7.47,–
O=C([O-])CC1=C(n2nc(-c3c(-c4ccccc4)nn4ccccc34)ccc2=O)CCCC1.[Na+],–,–,> 200000
O=C(O)CC1=C(n2nc(-c3c(-c4ccccc4)nn4ccccc34)ccc2=O)CCC1,6.08,7.96,–
O=C(O)CC1=C(n2nc(-c3c(-c4ccccc4)nn4ccccc34)ccc2=O)CCCCC1,5.26,7.80,–
O=C(/C=C/c1c(-c2ccccc2)nn2ccccc12)N1CCCC[C@@H]1CCO [FK453],4.96,7.77,–
